Reference: patent US5795892A, “4-aminopyridazines, method of preparing them and drugs containing these compounds” (Boehringer Manneim GmbH, priority 1994, dated 1998)

How the values were obtained:
[1] = molecular target: T1, human α thrombin (Homo sapiens, UniProt P00734); assay: Thrombin inhibition; format: biochemical; details: pH=7.5, 25° C., substrate H-(D)-Phe-Pro-Arg-pNA
T1 construct: human α thrombin; purchased Sigma
Method: The kinetic measurements were carried out in 0.1M phosphate buffer that contained 0.2M sodium chloride and 0.5% polyethylene glycol 6000 at a pH=7.5 and 25° C. with the substrate H-(D)-Phe-Pro-Arg-pNA (Kabi) and human α thrombin (Sigma, specific activity=2150 NIH-units/mg) in polystyrene semi-microcuvettes in a total volume of 1 ml.
In a preliminary test each active substance was determined as to whether it inhibits thrombin rapidly or slowly. For this the reaction was firstly started by adding 0.03 NIH units thrombin to a 100 μM solution of the substrate and the active substance. In a second experiment, substrate was added to a solution of thrombin and the active substance which had been incubated for 5 minutes. The increase in the concentration of p-nitroaniline with time was monitored spectroscopically (UV-VIS spectrophotometer Lambda-2 from the Perkin-Elmer Company) at 405 nm for 12 min.
Since the measured curves obtained in both experiments were linear and parallel, the active substances of the following table are rapid thrombin inhibitors.
The inhibition constants Ki were then determined as follows. The substrate was used at concentrations of 100 μM, 50 μM, 30 μM, 20 μM and at each substrate concentration one measurement was carried out without inhibitor and three measurements were carried out in the presence of various concentrations of the inhibitors listed in the following table. The reactions were started by the addition of thrombin. The increase in absorbance at 405 nm due to the formation of p-nitroaniline was monitored over a time period of 12 minutes. Measurement points (time versus absorbance) were transferred to a PC at intervals of 20 seconds. The rates Vo (change in absorbance per second; measurements without inhibitor) and Vi (measurements with inhibitor) are determined by linear regression. Only that part of each measurement was used in which the substrate concentration had decreased by less than 15%. Km ' and Vmax were determined from a measurement series (constant inhibitor concentration, variable substrate concentrations) by a non-linear fit to the equation [formula] Finally Ki was calculated from the entire series of measurements by non-linear fitting to the equation [formula]
The inhibition constants Ki of the active substances are stated in the following table in units of μM.

[2] = molecular target: T2, thrombin (Equus caballus, UniProt F7BFJ1); assay: Thrombin time; format: biochemical, horse thrombin, human plasma; details: 37° C.; for TT5 (thrombin time as a difference to the control): 5 μM active substance in human plasma; for TT50 (thrombin time as a difference to the control): 50 μM active substance in human plasma
T2 construct: mature thrombin (light and heavy chain) cut from prothrombin; clotting of human fibrinogen
Method: A conventional test in clinical coagulation diagnostics is the thrombin time. This parameter measures the action of thrombin on fibrinogen and the formation of clots. Inhibitors of thrombin result in an extended thrombin time.
In order to obtain plasma 9 parts of fresh blood from healthy donors was mixed with one part of sodium citrate solution (0.11 mol/l) and it was centrifuged for 10 minutes at room temperature at ca. 3000 r.p.m. The plasma was removed by pipette and can be stored at room temperature for ca. 8 hours.
200 μl citrate plasma was incubated for 2 minutes at 37° C. in a ball coagulometer (KC10 from the Amelung Company). 10 μl dimethylsulfoxide (DMSO) or a solution of the active substance in DMSO was added to 190 μl pre-heated thrombin reagent (Boehringer Mannheim GmbH; contains ca. 3 U/ml horse thrombin and 0.0125M Ca^++). On addition of this 200 μl solution to the plasma a stopwatch was started and the time at which coagulation starts was determined.
The measured thrombin times in seconds are given in the following table as a difference to the control. The concentrations of the active substances in human plasma were 50 μM (TT50) and 5 μM (TT5).

Row | Structure (SMILES) | Ki [1] | TT5 (thrombin time as a difference to the control) [2] | TT50 (thrombin time as a difference to the control) [2]
1 | CCOC(=O)COc1cccc(S(=O)(=O)Oc2cc(C)cc(OCCNc3ccnnc3)c2)c1 [Example 13, (3-{3-Methyl-5-[2-(pyridazin-4-ylamino)-ethoxy]-phenoxy-sulfonyl}-phenoxy)-acetic acid ethyl ester] | 90 nM | 0 s | 49 s
2 | Cc1cc(OCCNc2ccnnc2)cc(OS(=O)(=O)c2cccc(C(N)=S)c2)c1 [Example 10, 3-Thiocarbamoyl-benzenesulfonic acid-3-methyl-5-[2-(pyridazin-4-ylamino)-ethoxy]-phenyl ester] | 170 nM | 13 s | 71 s
3 | Cc1cc(OCCNc2ccnnc2)cc(OS(=O)(=O)c2ccc(C#N)cc2)c1 [Example 11, 4-Cyanobenzenesulfonic acid-3-methyl-5-[2-(pyridazin-4-ylamino)-ethoxy]-phenyl ester] | 200 nM | 18 s | 81 s
4 | Cc1cc(NS(=O)(=O)C2CCCCC2)cc(OCCNc2ccnnc2)c1 [Example 22, N-{3-Methyl-5-[2-(pyridazin-4-ylamino)-ethoxy]-phenyl}-cyclohexanesulfonamide] | 350 nM | 11 s | 90 s
5 | Cc1cc(OCCNc2ccnnc2)cc(OS(=O)(=O)c2cccnc2)c1 [Example 4] | 60 nM | 38 s | 194 s
6 | Cc1cc(OCCNc2ccnnc2)cc(OS(=O)(=O)c2cccc(C#N)c2)c1 [Example 9, 3-Cyanobenzenesulfonic acid-3-methyl-5-[2-(pyridazin-4-ylamino)-ethoxy]-phenyl ester] | 140 nM | 31 s | 128 s
7 | Cc1cc(NS(=O)(=O)c2ccccc2)cc(OCCNc2ccnnc2)c1 [Example 1, N-{3-methyl-5-[2-(pyridazin-4-ylamino)-ethoxy]-phenyl}-benzenesulfonamide] | 70 nM | 23 s | 126 s
